Assay results from publication PMC7470779 (Acta Pharmacologica Sinica, 2019).

Legend:
human OAT3 [1] = biological target: T1, human OAT3 (Homo sapiens, UniProt Q8TCC7); test: Acyclovir uptake in hOAT3-HEK293 cells; assay type: cell-based
T1 sequence (Q8TCC7 1-542): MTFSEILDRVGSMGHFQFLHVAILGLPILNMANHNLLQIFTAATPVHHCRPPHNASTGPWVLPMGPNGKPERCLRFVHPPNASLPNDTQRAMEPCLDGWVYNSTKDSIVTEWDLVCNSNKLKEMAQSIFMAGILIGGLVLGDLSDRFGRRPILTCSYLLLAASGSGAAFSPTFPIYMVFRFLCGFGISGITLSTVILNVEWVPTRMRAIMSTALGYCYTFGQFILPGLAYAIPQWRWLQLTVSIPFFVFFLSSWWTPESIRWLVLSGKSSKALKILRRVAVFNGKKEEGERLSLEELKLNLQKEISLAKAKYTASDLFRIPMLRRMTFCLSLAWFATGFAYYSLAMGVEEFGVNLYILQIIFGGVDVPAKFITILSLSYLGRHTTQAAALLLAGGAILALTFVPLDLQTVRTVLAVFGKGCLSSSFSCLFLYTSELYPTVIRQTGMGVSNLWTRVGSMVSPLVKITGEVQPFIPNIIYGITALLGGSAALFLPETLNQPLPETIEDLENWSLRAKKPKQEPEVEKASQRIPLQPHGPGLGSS

human OAT1 [2] = biological target: T2, human OAT1 (Homo sapiens, UniProt Q4U2R8); test: Acyclovir uptake in hOAT1-HEK293 cells; assay type: cell-based
T2 sequence (Q4U2R8 1-550 isoform Q4U2R8-2): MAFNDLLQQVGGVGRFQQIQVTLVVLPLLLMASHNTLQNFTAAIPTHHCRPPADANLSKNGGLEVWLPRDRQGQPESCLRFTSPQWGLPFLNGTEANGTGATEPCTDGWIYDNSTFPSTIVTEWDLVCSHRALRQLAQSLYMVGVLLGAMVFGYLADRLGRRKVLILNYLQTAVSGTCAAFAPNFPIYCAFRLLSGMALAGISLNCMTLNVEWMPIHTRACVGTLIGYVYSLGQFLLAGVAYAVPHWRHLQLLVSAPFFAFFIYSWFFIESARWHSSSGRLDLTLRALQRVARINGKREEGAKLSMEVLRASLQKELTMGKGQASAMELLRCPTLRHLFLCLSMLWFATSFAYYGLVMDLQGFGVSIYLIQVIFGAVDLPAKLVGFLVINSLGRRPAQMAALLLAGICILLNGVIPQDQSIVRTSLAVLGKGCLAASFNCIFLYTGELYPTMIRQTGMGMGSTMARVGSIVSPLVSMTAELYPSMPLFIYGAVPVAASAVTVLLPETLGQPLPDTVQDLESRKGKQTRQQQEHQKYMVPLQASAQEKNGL

human OAT1 [3] = biological target: T2, human OAT1; test: Inhibition of 6-CF uptake in hOAT1-HEK293 cells; assay type: cell-based
human OAT3 [4] = biological target: T1, human OAT3; test: Inhibition of 6-CF uptake in hOAT3-HEK293 cells; assay type: cell-based
human transporter MRP2 [5] = biological target: T3, human transporter MRP2 (Homo sapiens, UniProt Q92887); test: Transcellular transport of acyclovir in MRP2-MDCK cells; assay type: in vitro ADME; conditions: acyclovir 10 μmol/L, TER 10 μmol/L, MK571 20 μmol/L
human OAT3 [6] = biological target: T1, human OAT3; test: TER cellular uptake in hOAT3-HEK293 cells; assay type: in vitro ADME; conditions: TER 20 μmol/L, 20 min, with or without probenecid 200 μmol/L
human OAT1 [7] = biological target: T2, human OAT1; test: TER cellular uptake in hOAT1-HEK293 cells; assay type: in vitro ADME; conditions: TER 20 μmol/L, 20 min, with or without probenecid 200 μmol/L
[8] = cited from earlier work
human transporter MRP2 [9] = biological target: T3, human transporter MRP2; test: Accumulation of acyclovir in MRP2-MDCK cells; assay type: cell-based
in vivo = conditions: Sprague-Dawley, rat, iv, 30 mg/kg, AUC0-∞
[10] = Cumulative urinary excretion of acyclovir in rats; conditions: acyclovir alone 30 mg/kg iv
[11] = Sprague-Dawley, rat, plasma, intraperitoneal

With `Cc1oncc1C(=O)Nc1ccc(C(F)(F)F)cc1` [LEF, leflunomide] as the compound, how does the “effect on OAT3-mediated acyclovir transport (uptake)” value (human OAT3 [1]) read?
Its value is “inhibited”.

What about the “effect on OAT1-mediated acyclovir transport (uptake)” value (human OAT1 [2]) of the same compound?
The value was “only inhibited OAT3-mediated acyclovir transport”.

What about the “inhibitory effect on OAT1 (6-CF uptake)” value (human OAT1 [3]; hOAT1-HEK293 cells, LEF 1–100 μmol/L) of the same compound?
Its value is “no significant inhibitory effect”.

And the IC50 (human OAT3 [4])?
The IC50 was 4.1 µM.

For `CN(C)C(=O)CCSC(SCCC(=O)O)c1cccc(/C=C/c2ccc3ccc(Cl)cc3n2)c1` (centres unmarked) [MK571], which “effect on the plasma concentration and plasma clearance of acyclovir” value (rats, coadministration) is on record?
The value was “no effect”.

What about the “ER value of acyclovir reduced to, in the presence of inhibitor” value (human transporter MRP2 [5]) of the same compound?
The value was 1.46.

Which “effect on OAT3-mediated acyclovir transport (uptake)” value (human OAT3 [1]) does the source give for `C/C(O)=C(\C#N)C(=O)Nc1ccc(C(F)(F)F)cc1` [TER, teriflunomide] here?
Its value is “significantly inhibited”.

What about the “mean plasma concentration of TER” value [11] of the same compound?
Its value is 25900 to 37800 ng/mL.

And the “time at which peak plasma concentration of TER was reached” value [11]?
Its value is 2 h.

What about the “substrate of OAT3” value (human OAT3 [6]) of the same compound?
The value was “not a substrate”.

What about the “effect on OAT1-mediated acyclovir transport (uptake)” value (human OAT1 [2]) of the same compound?
Its value is “significantly inhibited”.

What about the “substrate of OAT1” value (human OAT1 [7]) of the same compound?
The value was “not a substrate”.

What about the “half-life of TER in the plasma” value [8] of the same compound?
The value was “approximately two weeks”.

What about the “ER value of acyclovir reduced to, in the presence of inhibitor” value (human transporter MRP2 [5]) of the same compound?
Its value is 1.46.

What about the IC50 (human OAT1 [3]) of the same compound?
Its IC50 is 3.39 µM.

What about the IC50 (human OAT3 [4]) of the same compound?
The IC50 was 0.87 µM.

What about the IC50 (human transporter MRP2 [9]) of the same compound?
Its IC50 is 4.91 µM.

With `Nc1nc2c(ncn2COCCO)c(=O)[nH]1` [acyclovir] as the compound, how does the AUC(0-inf) (in vivo) read?
Its AUC(0-inf) is 30600 ± 4530 ng·h/mL.

What about the AUC(0-inf) (in vivo; rats, acyclovir 30 mg/kg iv, acyclovir alone) of the same compound?
The AUC(0-inf) was 25800 ± 3020 ng·h/mL.

What about the “24-h cumulative urinary excretion of acyclovir (% of the dose recovered)” value [10] of the same compound?
Its value is 78.4%.
